Measurements published in ChEMBL document CHEMBL1201862, “PubChem BioAssay data set” (2004).
Activity calls are given as the source filed them.

Assays:
[1] = system: Streptococcus; assay: Luminescence Microorganism-Based Dose Response Follow up to Identify Compounds Cytotoxic to Streptococcus. [Related pubchem assays: 1677 (Project Summary), 1915, 1914, 1902 (Retest at Dose), 1900 (Counter Screen), 1662 (Primary HTS)]; type: functional, organism-based
[2] = molecular target: T1, Insulin-degrading enzyme (Homo sapiens, UniProt P14735); assay: Dose Response: Fluorescence polarization-based cell-based high throughput dose response assay for inhibitors of insulin-degrading enzyme (IDE). [Related pubchem assays: 434962 (Primary screen (IDE inhibitors in singlicate)), 449730 (Counterscreen (Cytotoxicity in triplicate)), 435028 (Confirmation (IDE inhibitors in triplicate)), 434984 (Summary …; type: functional
T1 sequence (P14735 whole entry): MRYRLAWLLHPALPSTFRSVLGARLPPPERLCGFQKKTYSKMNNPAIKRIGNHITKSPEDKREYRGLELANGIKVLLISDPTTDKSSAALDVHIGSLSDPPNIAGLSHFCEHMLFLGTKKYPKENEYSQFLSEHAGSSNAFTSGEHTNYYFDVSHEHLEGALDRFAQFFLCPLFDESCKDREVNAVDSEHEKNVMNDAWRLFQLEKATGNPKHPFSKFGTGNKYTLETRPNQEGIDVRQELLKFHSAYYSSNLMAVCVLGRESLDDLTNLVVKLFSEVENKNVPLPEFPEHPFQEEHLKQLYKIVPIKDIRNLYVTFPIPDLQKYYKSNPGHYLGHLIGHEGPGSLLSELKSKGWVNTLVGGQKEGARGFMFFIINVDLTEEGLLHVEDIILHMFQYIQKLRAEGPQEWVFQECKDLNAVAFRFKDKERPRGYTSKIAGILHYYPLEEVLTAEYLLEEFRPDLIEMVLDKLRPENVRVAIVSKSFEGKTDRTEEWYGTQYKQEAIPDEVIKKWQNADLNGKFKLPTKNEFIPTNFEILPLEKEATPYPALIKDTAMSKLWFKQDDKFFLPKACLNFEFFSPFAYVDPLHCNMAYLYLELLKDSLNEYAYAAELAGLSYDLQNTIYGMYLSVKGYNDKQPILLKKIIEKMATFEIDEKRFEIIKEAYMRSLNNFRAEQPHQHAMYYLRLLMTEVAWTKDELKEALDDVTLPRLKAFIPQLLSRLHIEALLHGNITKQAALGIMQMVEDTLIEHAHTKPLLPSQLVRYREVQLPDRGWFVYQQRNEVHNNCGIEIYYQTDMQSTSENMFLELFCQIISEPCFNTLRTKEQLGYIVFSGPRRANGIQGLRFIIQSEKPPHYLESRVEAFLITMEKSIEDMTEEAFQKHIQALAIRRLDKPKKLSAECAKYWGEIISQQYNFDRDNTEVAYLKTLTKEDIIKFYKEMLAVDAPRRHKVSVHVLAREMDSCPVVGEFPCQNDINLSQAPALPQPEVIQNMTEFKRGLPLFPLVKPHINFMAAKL

[3] = molecular target: T2, High affinity choline transporter 1 (Homo sapiens, UniProt Q9GZV3); assay: CHT inhibitors, dose response, cell-based, 5-point CRC, membrane potential dye (AID 504840); type: functional
T2 sequence (Q9GZV3 whole entry): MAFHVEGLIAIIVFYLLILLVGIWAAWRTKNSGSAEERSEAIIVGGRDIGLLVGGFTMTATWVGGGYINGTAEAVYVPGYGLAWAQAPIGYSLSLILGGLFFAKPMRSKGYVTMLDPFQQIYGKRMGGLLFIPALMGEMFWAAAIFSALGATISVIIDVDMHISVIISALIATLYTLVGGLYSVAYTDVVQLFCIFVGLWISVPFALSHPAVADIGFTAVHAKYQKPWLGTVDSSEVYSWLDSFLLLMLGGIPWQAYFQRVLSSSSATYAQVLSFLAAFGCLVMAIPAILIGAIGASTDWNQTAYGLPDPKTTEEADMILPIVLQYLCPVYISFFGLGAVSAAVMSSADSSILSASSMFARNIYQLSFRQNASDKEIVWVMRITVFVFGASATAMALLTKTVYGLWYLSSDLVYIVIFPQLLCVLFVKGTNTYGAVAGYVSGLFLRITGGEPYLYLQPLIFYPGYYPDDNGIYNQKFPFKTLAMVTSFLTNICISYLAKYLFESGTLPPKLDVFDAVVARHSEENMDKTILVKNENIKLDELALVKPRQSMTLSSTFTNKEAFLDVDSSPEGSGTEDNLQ

[4] = molecular target: T2, High affinity choline transporter 1; assay: CHT inhibitors, dose response, cell-based, 10-point CRC, membrane potential dye (AID 588401); type: functional;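 further: membrane potential dye fluorescence of choline-evoked depolarization via CHT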
[5] = Counterscreen for IDE inhibitors: Luminescence-based cell-based high throughput dose response assay to identify compounds that are cytotoxic to HEK cells. [Related pubchem assays: 434962 (Primary screen (IDE inhibitors in singlicate)), 449730 (Counterscreen (Cytotoxicity in triplicate)), 435028 (Confirmation (IDE inhibitors in triplicate)) …; type: functional; details: HEK293
[6] = Luminescence Cell-Based Dose Confirmation HTS to Identify Inhibitors of Platelet Dense Granule Release. [Related pubchem assays: 1663 (Primary HTS), 1678 (Summary of Project)]; type: functional
[7] = Luminescence-based counterscreen assay for KLF5 inhibitors: dose response cell-based high throughput screening assay to identify cytotoxic compounds using the IEC-6 intestinal epithelial cell line. [Related pubchem assays: 1700 (Primary screen.), 1834 (Confirmation screen.), 1858 (Summary AID.), 1905 (Counterscreen.)]; type: functional
[8] = molecular target: Luciferin 4-monooxygenase (Photinus pyralis, UniProt P08659); assay: firefly luciferase enzyme inhibitors, dose response, biochemical, luminescence (AID 1891)
[9] = Luminescence Cell-Based Dose Response HTS to Identify Inhibitors of 5'UTR Stem-Loop Driven Prion Protein mRNA Translation in H4 Neuroglioblastoma Cells. [Related pubchem assays: 1827 (Project Summary), 1813 (Primary HTS)]; type: functional
[10] = LGR2 antagonists, dose response, cell-based, HEK293, CRE-luciferase reporter, cherry pick, set 2 (AID 743343); type: functional;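 further: transfected cells were stimulated with diluted bursicon conditioned medium after compound addition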
[11] = HepG2 cell cytotoxicity, dose response, cytotoxicity control, plate reader, cherry-pick, antagonist series (AID 743416); type: functional, cell-based
[12] = A549 cell cytotoxicity, dose response, cytotoxicity control, plate reader, cherry-pick, antagonist series (AID 743412); type: functional, cell-based
[13] = inhibitors of SNCA 5'UTR-driven reporter translation, confirmation, H4 neuroglioma cells, luminescence (AID 1988); type: functional, cell-based
[14] = HEK293 cell cytotoxicity, dose response, cytotoxicity control, plate reader, cherry-picked samples (AID 743446); type: functional, cell-based
[15] = inhibitors of firefly luciferase expression or activity, dose response, H4 neuroglioma cells, luminescence (AID 1990); type: functional, cell-based
[16] = MC4R antagonists, dose response, counter-screen for LGR2 antagonist project, cell-based, plate reader, cherry pick (AID 743444); type: functional;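 further: transfected HEK 293 cells stimulated with alpha-MSH peptide; potency of inhibitors of the alpha-MSH evoked signal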
[17] = cells
[18] = HEp-2 cell cytotoxicity, dose response, cytotoxicity control for RSV inhibitor project, HTS (AID 2410); type: functional; details: human respiratory syncytial virus
[19] = molecular target: Melanin-concentrating hormone receptor 1 (Homo sapiens, UniProt Q99705); assay: Fluorescence-based counterscreen for antagonists of the G-protein coupled receptor 7 (GPR7): cell-based high throughput dose response assay to identify antagonists of the melanin-concentrating hormone receptor 1 (MCHR1).; type: functional
[20] = molecular target: T3, Neuropeptides B/W receptor type 1 (Homo sapiens, UniProt P48145); assay: Fluorescence-based dose response cell-based high throughput screening assay to identify antagonists of the G-protein coupled receptor 7 (GPR7). [Related pubchem assays: 1952 (Screening assay (GPR7 antagonists).), 1880 (Summary AID.)]; type: functional
T3 sequence (P48145 whole entry): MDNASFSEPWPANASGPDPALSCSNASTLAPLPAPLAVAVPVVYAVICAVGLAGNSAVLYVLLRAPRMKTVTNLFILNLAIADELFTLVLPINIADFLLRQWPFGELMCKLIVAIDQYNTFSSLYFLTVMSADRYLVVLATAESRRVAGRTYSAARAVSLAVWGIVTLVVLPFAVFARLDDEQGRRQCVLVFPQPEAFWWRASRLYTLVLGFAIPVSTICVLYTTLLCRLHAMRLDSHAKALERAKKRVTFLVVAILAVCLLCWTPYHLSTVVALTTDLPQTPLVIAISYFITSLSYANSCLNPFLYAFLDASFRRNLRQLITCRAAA

[21] = molecular target: T4, Corticotropin-releasing factor receptor 2/Corticotropin-releasing factor-binding protein (Homo sapiens, UniProt P24387+Q13324); assay: activators of CRF receptor 2 with binding protein – uHTS hits, confirmation (AID 602473); type: functional; details: read-out: EC50_Mean
T4 sequence (Q13324 whole entry): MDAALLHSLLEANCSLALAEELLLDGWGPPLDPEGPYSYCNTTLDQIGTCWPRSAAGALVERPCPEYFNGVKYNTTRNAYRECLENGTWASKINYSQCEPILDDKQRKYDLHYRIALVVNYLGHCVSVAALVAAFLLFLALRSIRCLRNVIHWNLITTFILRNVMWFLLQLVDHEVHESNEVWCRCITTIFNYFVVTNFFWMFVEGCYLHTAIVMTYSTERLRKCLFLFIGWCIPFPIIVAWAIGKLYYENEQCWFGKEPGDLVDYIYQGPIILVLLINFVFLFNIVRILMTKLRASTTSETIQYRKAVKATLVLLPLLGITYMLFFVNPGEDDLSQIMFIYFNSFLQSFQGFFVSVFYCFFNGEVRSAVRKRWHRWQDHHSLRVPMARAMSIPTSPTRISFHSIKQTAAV
T4 sequence (P24387 whole entry): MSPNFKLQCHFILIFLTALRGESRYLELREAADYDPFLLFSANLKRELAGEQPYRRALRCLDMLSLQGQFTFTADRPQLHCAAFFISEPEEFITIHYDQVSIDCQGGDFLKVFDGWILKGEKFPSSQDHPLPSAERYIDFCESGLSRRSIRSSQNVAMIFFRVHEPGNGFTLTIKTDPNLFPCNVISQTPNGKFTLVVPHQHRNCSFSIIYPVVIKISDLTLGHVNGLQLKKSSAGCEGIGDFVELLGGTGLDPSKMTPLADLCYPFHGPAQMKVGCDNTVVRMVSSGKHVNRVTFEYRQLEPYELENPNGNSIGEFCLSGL

Sequence of Melanin-concentrating hormone receptor 1 (Q99705 whole entry): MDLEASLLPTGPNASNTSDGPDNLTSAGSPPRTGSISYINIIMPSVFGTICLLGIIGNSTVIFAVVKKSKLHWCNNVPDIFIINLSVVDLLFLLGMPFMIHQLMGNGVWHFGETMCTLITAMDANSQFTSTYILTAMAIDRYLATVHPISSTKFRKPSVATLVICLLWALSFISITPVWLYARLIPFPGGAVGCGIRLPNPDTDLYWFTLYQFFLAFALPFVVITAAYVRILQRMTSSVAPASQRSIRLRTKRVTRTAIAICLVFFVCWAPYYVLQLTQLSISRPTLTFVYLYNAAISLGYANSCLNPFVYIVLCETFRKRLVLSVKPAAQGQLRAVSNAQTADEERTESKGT
Sequence of Luciferin 4-monooxygenase (P08659 whole entry): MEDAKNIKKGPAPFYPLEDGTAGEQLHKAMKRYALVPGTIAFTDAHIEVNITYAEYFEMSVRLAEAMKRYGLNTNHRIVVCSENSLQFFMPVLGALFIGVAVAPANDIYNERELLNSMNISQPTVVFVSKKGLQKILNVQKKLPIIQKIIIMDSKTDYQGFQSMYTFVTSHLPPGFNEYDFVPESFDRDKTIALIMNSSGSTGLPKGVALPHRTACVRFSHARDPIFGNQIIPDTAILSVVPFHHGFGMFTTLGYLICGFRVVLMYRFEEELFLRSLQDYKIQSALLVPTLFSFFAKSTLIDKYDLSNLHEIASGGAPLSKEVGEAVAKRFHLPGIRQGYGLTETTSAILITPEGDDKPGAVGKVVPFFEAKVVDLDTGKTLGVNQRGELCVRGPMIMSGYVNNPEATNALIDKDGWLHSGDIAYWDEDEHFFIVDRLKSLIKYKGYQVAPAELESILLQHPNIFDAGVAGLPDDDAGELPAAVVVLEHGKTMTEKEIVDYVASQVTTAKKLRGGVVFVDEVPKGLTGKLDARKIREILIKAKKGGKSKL

Question: With `N#Cc1ccc(C(=O)n2c3ccccc3c3ccccc32)cc1` as the molecule, how does the EC50 [1] read?
Answer: Its EC50 is > 500 µM (not active).

Question: Which IC50 [2] does the source give for `CC(C)(C)NC(=O)NC(=O)CN1CCN(c2cccc(Cl)c2)CC1` here?
Answer: The IC50 was > 55.9 µM (not active).

Question: What about the IC50 [3] of the same molecule?
Answer: Its IC50 is 8.64 µM (active).

Question: And the IC50 [4]?
Answer: Its IC50 is 3.16 µM (active).

Question: And the IC50 [5]?
Answer: The IC50 was 19.3 µM (not active).

Question: With `CCc1ccn2cc(-c3ccc4c(c3)OCO4)nc2c1` as the molecule, how does the EC50 [6] read?
Answer: The EC50 was 8.85 µM (active).

Question: What about the IC50 [7] of the same molecule?
Answer: Its IC50 is 21.5 µM (not active).

Question: What about the EC50 [8] of the same molecule?
Answer: Its EC50 is 2.16 µM (active).

Question: And the EC50 [9]?
Answer: The EC50 was < 0.1 µM (active).

Question: And the AC50 [10]?
Answer: Its AC50 is 1.22 µM (active).

Question: And the AC50 [11]?
Answer: The AC50 was > 52 µM (inactive).

Question: What about the AC50 [12] of the same molecule?
Answer: Its AC50 is > 52 µM (inactive).

Question: What about the EC50 [13] of the same molecule?
Answer: The EC50 was 0.158 µM (active).

Question: What about the AC50 [14] of the same molecule?
Answer: The AC50 was > 52 µM (inactive).

Question: And the EC50 [15]?
Answer: Its EC50 is 0.239 µM (active).

Question: What about the AC50 [16] of the same molecule?
Answer: The AC50 was 1.5 µM (active).

Question: With `COc1ccc(-c2oc(=O)c3cc(OC)c(OC)cc3c2/C=C/c2cccc([N+](=O)[O-])c2)cc1` as the molecule, how does the IC50 [17] read?
Answer: The IC50 was 14.8 µM (active).

Question: What about the CC50 [18] of the same molecule?
Answer: The CC50 was 38 µM (active).

Question: For `N=c1c(C(=O)NCCc2ccccc2)cc2c(=O)n3ccccc3nc2n1CCCN1CCOCC1`, which IC50 [19] is on record?
Answer: Its IC50 is > 43.8 µM (not active).

Question: What about the IC50 [20] of the same molecule?
Answer: Its IC50 is > 43.8 µM (not active).

Question: For `Cc1cccc(/N=C/c2[nH]c3ccc(Br)c(Cl)c3c2O)c1`, which IC50 [2] is on record?
Answer: The IC50 was 38.2 µM (not active).

Question: What about the EC50 [21] of the same molecule?
Answer: The EC50 was 0.46 µM (active).

Question: And the IC50 [5]?
Answer: The IC50 was 13.1 µM (not active).
